As a reminder, the Km is the substrate concentration at which the rate is half of its maximum.

Km data for 3 molecules are collected here from paper PMC11557573, “Aspergillus flavipes L-methionine γ-lyase-β-cyclodextrin conjugates with improved stability, catalytic efficiency and anticancer activity” (Scientific Reports, 2024).

For the assay, the system named is T1, A. flavipes L-methionine γ-lyase (MGL), free MGL.
T1 construct: native intracellular enzyme purified from A. flavipes mycelium (acetone, Sephadex G100, DEAE-Sepharose); 48 kDa subunit; PLP enzyme; free (not cyclodextrin-conjugated)
Kind of assay: released thiol/ammonia assay (DTNB), Lineweaver-Burk. The settings on record: free enzyme; standard assay Tris-HCl pH 7.8, 10 μM PLP, 37 °C. It is filed as biochemical, Aspergillus flavipes. The source says: released thiol/ammonia assay (DTNB), Lineweaver-Burk on A. flavipes L-methionine γ-lyase (MGL), free MGL
Turning to `CSCC[C@H](N)C(=O)O` [L-methionine], the Km turned out to be 7.2 mM.

With `N[C@@H](CS)C(=O)O` [L-cysteine], the Km amounted to 9.5 mM.

Consider `NC(CCS)C(=O)O` (racemic) [DL-homocysteine], for which the Km is 12.2 mM.
